The structures appear in SMILES notation.

The record followed here is the supplement of paper PMC7287046.

Holding throughout (conditions): exposure time: 72 h
Assay [1] concerns AM38. As for the experimental part:
(§1)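 Glioma cell lines and primary cultures were treated with single drugs in a nine-step threefold dilution series, about 72 h. Viability was read by CellTiter-Glo and normalised to untreated controls. Absolute IC50 was fitted in GraphPad Prism; values beyond the tested dose range are censored at the block's top or lowest dose.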

Assay [2] relates to KNS42. The method, then: as §1
The test system of assay [3] is SF268. As for the experimental part:
as §1

Assay [4] concerns SF539. As for the experimental part: as §1
Assay [5] concerns SNB75. As for the experimental part: as §1
The test system of assay [6] is T98. As for the experimental part:
as §1

Assay [7] concerns U118. The method, then:
as §1

In assay [8] the test system is U251. The method, then:
as §1

Assay [9] relates to U87. The method, then: as §1
Assay [10] relates to CAS-1. As for the experimental part:
as §1

The subject of assay [11] is AM-38. The assay can be described thus: HSA synergy score (Combenefit); higher = more synergy. The method in brief:
(§2)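 Each drug's dilution series was topped at its own IC50. Pairs were combined on glioma cell lines as 6 × 6 twofold-dilution matrices in 96-well plates, dosed 24 h after plating, with a sixfold untreated control, and read three days later at least in triplicate. CellTiter-Glo viability, given as percent of DMSO controls, was normalised, and Combenefit then yielded Loewe, Bliss and highest single agent synergy scores.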

The subject of assay [12] is KNS-42. The assay is described as above. Put shortly:
as §2

The subject of assay [13] is SF268. The description is as above. Put shortly:
as §2

Assay [14] relates to SF539. The assay is described as above. The method in brief:
as §2

Assay [15] concerns SNB75. The description is as above. Put shortly:
as §2

The subject of assay [16] is T98G. Described as above. Put shortly:
as §2

The subject of assay [17] is U118. The description is as above. Put shortly: as §2
The test system of assay [18] is U251. Described as above. The method in brief:
as §2

Assay [19] has as its system U87. The assay is described as above. Put shortly: as §2
For assay [20], the system named is AM38. In words: Chou-Talalay combination index (dimensionless); higher = less synergy (more antagonism). The method in brief:
(§3)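 Two drugs were combined in a 6 × 6 grid of twofold dilutions on glioma cells plated 24 h earlier in 96-well plates, with low-adhesion plates for primary cultures. Each dilution series was capped at the drug's single-drug IC50. After three days, CellTiter-Glo readings were taken at least in triplicate. The Chou–Talalay combination index was calculated by the median effect principle from single and combined viabilities, given as percent of DMSO controls.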

For assay [21], the system named is KNS42. The assay is described as above. Put shortly:
as §3

Assay [22] concerns SF268. Described as above. Put shortly:
as §3

Assay [23] concerns SF539. The description is as above. The method in brief: as §3
For assay [24], the system named is SNB75. The description is as above. Put shortly:
as §3

Assay [25] relates to T98. The assay is described as above. Put shortly:
as §3

Assay [26] deals with U118. The description is as above. The method in brief:
as §3

Assay [27] concerns U251. Described as above. Put shortly: as §3
Assay [28] deals with U87. The assay is described as above. The method in brief:
as §3

Assay [29] concerns AM-38. In words: Bliss synergy score (Combenefit); higher = more synergy; extreme values may be limits of the assay. The method in brief:
as §2

Assay [30] concerns KNS-42. Described as above. The method in brief:
as §2

Assay [31] has as its system SF268. The description is as above. Put shortly:
as §2

For assay [32], the system named is SF539. The assay is described as above. The method in brief: as §2
The subject of assay [33] is SNB75. The description is as above. The method in brief:
as §2

Assay [34] concerns T98G. The assay is described as above. The method in brief: as §2
For assay [35], the system named is U118. The description is as above. The method in brief:
as §2

Assay [36] deals with U251. The assay is described as above. Put shortly: as §2
Assay [37] relates to U87. The description is as above. Put shortly:
as §2

Assay [38] has as its system AM-38. In words: Loewe synergy score (Combenefit); higher = more synergy; extreme values may be limits of the assay. The method in brief: as §2
In assay [39] the test system is KNS-42. Described as above. The method in brief:
as §2

The subject of assay [40] is SF268. Described as above. The method in brief: as §2
Assay [41] has as its system SF539. The assay is described as above. The method in brief: as §2
In assay [42] the test system is SNB75. The assay is described as above. The method in brief:
as §2

Assay [43] concerns T98G. The assay is described as above. The method in brief:
as §2

Assay [44] concerns U118. Described as above. The method in brief:
as §2

The subject of assay [45] is U251. The assay is described as above. Put shortly:
as §2

Assay [46] deals with U87. The description is as above. The method in brief:
as §2

Take `N#CC(c1ccnc(NCCc2cccnc2)n1)c1nc2ccccc2s1` (stereo not drawn): the “IC50 (absolute, viability)” value in [1] was determined as 10 µM; in [2], 27.3 µM; in assay [3], 7.05 µM; in assay [4], 3.71 µM; in assay [5] it was 13.1 µM; in [6], 7.19 µM. For the same compound, the results for the “IC50 (absolute, viability)” value in assay [7], in assay [8] and in assay [9] were 20.1 µM, 11300 nM and 24.5 µM, respectively.
For `Cc1cc([C@@H](C)Nc2ccccc2C(=O)O)c2nc(N3CCOCC3)cc(=O)n2c1` [AZD6482], the “IC50 (absolute, viability)” value in assay [1] turned out to be 8.35 µM; in assay [10] it was 3.15 µM; in assay [2], 41.4 µM; in assay [3] it was 13.9 µM; in assay [4], 4.86 µM; in assay [5], 9.91 µM. Moreover, the “IC50 (absolute, viability)” value stood at 8.39 µM in [6], 22 µM in assay [7], 5070 nM in assay [8] and 6.69 µM in [9].
As for `C[C@@H](Oc1cc(-c2cnn(C3CCNCC3)c2)cnc1N)c1c(Cl)ccc(F)c1Cl` [Crizotinib], the “IC50 (absolute, viability)” value in assay [10] is greater than 50 µM; in assay [2], 25 µM; in [3], 0.0296 µM; in assay [4], less than 0.0229 µM; in assay [6], 1.88 µM; in assay [7] it was less than 0.0229 µM. Further, the results for the “IC50 (absolute, viability)” value in assay [8] and in assay [9] were 330 nM and 3.63 µM, respectively.
Turning to `CC(=O)O[C@@]12CO[C@@H]1C[C@H](O)[C@@]1(C)C(=O)[C@H](O)C3=C(C)[C@@H](OC(=O)[C@H](O)[C@@H](NC(=O)OC(C)(C)C)c4ccccc4)C[C@@](O)([C@@H](OC(=O)c4ccccc4)[C@H]21)C3(C)C` [Docetaxel], the “IC50 (absolute, viability)” value amounted to 0.00128 µM in assay [1]; 0.0437 µM in [10]; 0.00438 µM in [2]; 0.00231 µM in assay [3]; 0.000628 µM in assay [4]; 0.00167 µM in assay [5]. The “IC50 (absolute, viability)” value in [6] stood at 0.000818 µM; in assay [7], 0.0101 µM; in assay [8] it was 0.0604 nM; in assay [9] it was 0.00273 µM.
As for `C#Cc1cccc(Nc2ncnc3cc(OCCOC)c(OCCOC)cc23)c1` [Erlotinib], the “IC50 (absolute, viability)” value in [1] is 27.8 µM; in assay [10] it was greater than 50 µM; in assay [2], 27.2 µM; in assay [3] it was 38.1 µM; in [4] it was 25 µM; in [5], 15 µM. Moreover, the “IC50 (absolute, viability)” value worked out at 27.5 µM in assay [6], 35.5 µM in assay [7] and 11.6 µM in [9].
On to `Nc1ccn([C@@H]2O[C@H](CO)[C@@H](O)C2(F)F)c(=O)n1` [Gemcitabine], for which the “IC50 (absolute, viability)” value turned out to be 0.145 µM in assay [1]; 0.207 µM in assay [10]; 0.859 µM in [2]; 0.21 µM in [3]; 0.182 µM in [4]; 0.147 µM in assay [5]. The “IC50 (absolute, viability)” value in [6] was 0.45 µM; in [7], 0.32 µM; in assay [8] it was 149 nM; in assay [9] it was 0.0279 µM.
Regarding `CCOc1nc(NC(=O)Cc2cc(OC)ccc2OC)cc(N)c1C#N` [JNK inhibitor VIII], the “IC50 (absolute, viability)” value was 15.8 µM in [1]; 20.2 µM in assay [10]; 36.5 µM in assay [2]; 21.1 µM in assay [3]; 7.09 µM in assay [4]; 8.38 µM in [5]. Moreover, the “IC50 (absolute, viability)” value in [6] was found to be 6.36 µM; in [7] it was 28.8 µM; in assay [8], 48700 nM; in [9], 12 µM.
In the case of `C=CCc1cccc(/C=N/NC(=O)CN2CCN(Cc3ccccc3)CC2)c1O` [PAC-1], the “IC50 (absolute, viability)” value in assay [1] was 0.404 µM; in assay [10] it was greater than 100 µM; in assay [2], 17.8 µM; in assay [3], 2.97 µM; in assay [4], 3.06 µM; in assay [5], 2.98 µM. Also, the “IC50 (absolute, viability)” value was found to be 1.71 µM in [6], 5.44 µM in assay [7], 6150 nM in assay [8] and 7.18 µM in assay [9].
On to `CO[C@H]1C[C@@H]2CC[C@@H](C)[C@@](O)(O2)C(=O)C(=O)N2CCCC[C@H]2C(=O)O[C@H]([C@H](C)C[C@@H]2CC[C@@H](O)[C@H](OC)C2)CC(=O)[C@H](C)/C=C(\C)[C@@H](O)[C@@H](OC)C(=O)[C@H](C)C[C@H](C)/C=C/C=C/C=C/1C` [Rapamycin], for which the “IC50 (absolute, viability)” value was less than 0.00302 µM in assay [1]; greater than 6.6 µM in assay [2]; less than 0.00302 µM in assay [4]; greater than 6.6 µM in [5]; less than 0.00302 µM in assay [6]; greater than 6.6 µM in [7].
As for `CCC(=O)N1CCN(c2ccc(-n3c(=O)ccc4cnc5ccc(-c6cnc7ccccc7c6)cc5c43)cc2C(F)(F)F)CC1` [Torin1], the “IC50 (absolute, viability)” value in assay [1] was 0.00418 µM; in assay [10], 0.0285 µM; in assay [2], 0.434 µM; in [3] it was 0.0746 µM; in assay [4], 0.028 µM; in assay [5], 0.0191 µM. Besides, the “IC50 (absolute, viability)” value in [6] was determined as 0.0251 µM; in assay [7], 0.0274 µM; in assay [8] it was 199 nM; in assay [9] it was 0.0174 µM.
In the case of `CCC(=O)N1CCN(c2ccc(-n3c(=O)ccc4cnc5ccc(-c6cnc7ccccc7c6)cc5c43)cc2C(F)(F)F)CC1` [Torin1] + C#Cc1cccc(Nc2ncnc3cc(OCCOC)c(OCCOC)cc23)c1 [Erlotinib], the HSA synergy score worked out at 0 in assay [11]; 3.86 in [12]; 15.2 in assay [13]; 14 in assay [14]; 18.2 in assay [15]; 11.1 in [16]. The HSA synergy score was 20.5 in [17], 35.3 in assay [18] and 11.5 in assay [19]. Besides, the Chou-Talalay combination index in [20] is 0.754; in assay [21], 0.917; in assay [22], 0.819; in assay [23], 0.678; in assay [24] it was 0.61; in assay [25], 0.249. Further, the Chou-Talalay combination index was found to be 0.744 in assay [26], 0.279 in assay [27] and 0.58 in assay [28]. Further, the Bliss synergy score in assay [29] was 0; in [30], 1.13; in assay [31], 0.392; in assay [32] it was 0.68; in [33], 15.6; in [34] it was 4.09. Moreover, the figures for the Bliss synergy score in assay [35], in assay [36] and in [37] were 2.65, 25.4 and 0.359, respectively. The Loewe synergy score in [38] is 0; in assay [39], 3.69; in [40] it was 10.5; in assay [41], 9.6; in assay [42], 10.2; in assay [43], 11. The values for the Loewe synergy score in assay [44], in assay [45] and in assay [46] were 13.7, 32.9 and 6.1, respectively.
